Source: PubChem BioAssay (NCI)
Several values for one entry are separate records, joined by “and”; a condition that tells them apart may be missing. Identical values can stand only once.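 How tested: cells in 96-well plates exposed to compound for 48 hours at five concentrations. GI50: concentration for 50% inhibition of growth. TGI: total growth inhibition.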

Assays:
Assay in all cases: NCI tumour cell line growth inhibition, 48 h
DMS 273 small cell lung = test system: DMS 273 small cell lung
HOP-18 NSCLC = test system: HOP-18 NSCLC
XF 498 CNS = test system: XF 498 CNS
M19-MEL melanoma = test system: M19-MEL melanoma
ACHN renal = test system: ACHN renal
SNB-78 CNS = test system: SNB-78 CNS
TK-10 renal = test system: TK-10 renal
MOLT-4 leukemia = test system: MOLT-4 leukemia
UACC-257 melanoma = test system: UACC-257 melanoma
SF-295 CNS = test system: SF-295 CNS
RXF 393 renal = test system: RXF 393 renal
NCI-H226 lung = test system: NCI-H226 lung
SF-268 CNS = test system: SF-268 CNS
U251 CNS = test system: U251 CNS
NCI-H23 lung = test system: NCI-H23 lung
LXFL 529 NSCLC = test system: LXFL 529 NSCLC
SR leukemia = test system: SR leukemia
HOP-62 NSCLC = test system: HOP-62 NSCLC
SW-620 colon = test system: SW-620 colon
SNB-75 CNS = test system: SNB-75 CNS
COLO 205 colon = test system: COLO 205 colon
HL-60(TB) leukemia = test system: HL-60(TB) leukemia
KM20L2 colon = test system: KM20L2 colon
A498 renal = test system: A498 renal
OVCAR-5 ovarian = test system: OVCAR-5 ovarian
RPMI-8226 leukemia = test system: RPMI-8226 leukemia
786-0 renal = test system: 786-0 renal
HCC-2998 colon = test system: HCC-2998 colon
CAKI-1 renal = test system: CAKI-1 renal
K-562 leukemia = test system: K-562 leukemia
UACC-62 melanoma = test system: UACC-62 melanoma
SN12C renal = test system: SN12C renal
IGROV1 ovarian = test system: IGROV1 ovarian
HCT-116 colon = test system: HCT-116 colon
OVCAR-4 ovarian = test system: OVCAR-4 ovarian
SK-MEL-2 melanoma = test system: SK-MEL-2 melanoma
CCRF-CEM leukemia = test system: CCRF-CEM leukemia
A549 NSCLC = test system: A549 NSCLC
LOX IMVI melanoma = test system: LOX IMVI melanoma
UO-31 renal = test system: UO-31 renal
OVCAR-8 ovarian = test system: OVCAR-8 ovarian
RXF-631 renal = test system: RXF-631 renal
OVCAR-3 ovarian = test system: OVCAR-3 ovarian
SK-MEL-28 melanoma = test system: SK-MEL-28 melanoma
SK-MEL-5 melanoma = test system: SK-MEL-5 melanoma
HT29 colon = test system: HT29 colon
NCI-H522 lung = test system: NCI-H522 lung
DMS 114 small cell lung = test system: DMS 114 small cell lung
DLD-1 colon = test system: DLD-1 colon
SK-OV-3 ovarian = test system: SK-OV-3 ovarian
HCT-15 colon = test system: HCT-15 colon
SF-539 CNS = test system: SF-539 CNS
EKVX NSCLC = test system: EKVX NSCLC
NCI-H460 lung = test system: NCI-H460 lung
M14 melanoma = test system: M14 melanoma
KM12 colon = test system: KM12 colon
HOP-92 NSCLC = test system: HOP-92 NSCLC
SNB-19 CNS = test system: SNB-19 CNS
MALME-3M melanoma = test system: MALME-3M melanoma

CCOc1ccccc1NC(=O)C(C#N)C1=C(Cl)C(=O)c2ccccc2C1=O (centres undefined)
TGI (DMS 273 small cell lung): 3.35 µM and 3.47 µM
TGI (HOP-18 NSCLC): 2.85 µM
GI50 (XF 498 CNS): 1.83 µM
TGI (XF 498 CNS): 3.75 µM and 3.24 µM
GI50 (M19-MEL melanoma): 0.303 µM
TGI (M19-MEL melanoma): 0.351 µM and 0.872 µM
TGI (ACHN renal): 3.26 µM and 3.52 µM
GI50 (SNB-78 CNS): 2.03 µM
TGI (SNB-78 CNS): 4.42 µM
GI50 (TK-10 renal): 12.3 µM
TGI (TK-10 renal): 3.84 µM and 25.8 µM
TGI (MOLT-4 leukemia): 3.32 µM
GI50 (UACC-257 melanoma): 2.22 µM
TGI (UACC-257 melanoma): 2.25 µM and 6.7 µM
TGI (SF-295 CNS): 3.13 µM and 3.19 µM
TGI (RXF 393 renal): 3.43 µM and 3.25 µM
TGI (NCI-H226 lung): 4.49 µM and 19 µM
TGI (SF-268 CNS): 4.79 µM
GI50 (U251 CNS): 1.95 µM
TGI (U251 CNS): 3.14 µM and 3.82 µM
TGI (NCI-H23 lung): 3.99 µM and 6.17 µM
TGI (LXFL 529 NSCLC): 3.25 µM and 3.16 µM
TGI (SR leukemia): 3.73 µM
TGI (HOP-62 NSCLC): 19.7 µM
GI50 (SW-620 colon): 2.81 µM
TGI (SW-620 colon): 3.45 µM and 6.68 µM
GI50 (SNB-75 CNS): 1.68 µM
TGI (SNB-75 CNS): 3.94 µM and 3.09 µM
GI50 (COLO 205 colon): 12.6 µM
TGI (COLO 205 colon): 3.43 µM and 27.9 µM
GI50 (HL-60(TB) leukemia): 2.85 µM
GI50 (KM20L2 colon): 17.7 µM
TGI (A498 renal): 36.5 µM
TGI (OVCAR-5 ovarian): 3.57 µM and 3.55 µM
GI50 (RPMI-8226 leukemia): 3.34 µM
GI50 (786-0 renal): 0.899 µM
TGI (786-0 renal): 3.18 µM and 2.19 µM
GI50 (HCC-2998 colon): 12.3 µM
TGI (HCC-2998 colon): 3.15 µM and 25.6 µM
GI50 (CAKI-1 renal): 1.81 µM
TGI (CAKI-1 renal): 5 µM and 3.29 µM
GI50 (K-562 leukemia): 2.93 µM
TGI (UACC-62 melanoma): 3.24 µM and 3.36 µM
TGI (SN12C renal): 3.19 µM and 3.53 µM
TGI (IGROV1 ovarian): 5.31 µM
TGI (HCT-116 colon): 3.38 µM and 3.93 µM
GI50 (OVCAR-4 ovarian): 1.67 µM
TGI (OVCAR-4 ovarian): 3.42 µM and 3.04 µM
TGI (SK-MEL-2 melanoma): 3.05 µM and 3.12 µM
GI50 (CCRF-CEM leukemia): 3.15 µM
TGI (A549 NSCLC): 3.74 µM
GI50 (LOX IMVI melanoma): 1.38 µM
TGI (LOX IMVI melanoma): 2.08 µM and 3.28 µM
GI50 (UO-31 renal): 1.51 µM
TGI (UO-31 renal): 3.1 µM and 2.86 µM
GI50 (OVCAR-8 ovarian): 1.92 µM
TGI (OVCAR-8 ovarian): 2.06 µM and 4.59 µM
GI50 (RXF-631 renal): 6.8 µM
TGI (RXF-631 renal): 4.03 µM and 26.2 µM
GI50 (OVCAR-3 ovarian): 2 µM
TGI (OVCAR-3 ovarian): 2.97 µM and 5.04 µM
TGI (SK-MEL-28 melanoma): 3.62 µM
TGI (SK-MEL-5 melanoma): 2.86 µM and 3.13 µM
GI50 (HT29 colon): 14 µM
TGI (NCI-H522 lung): 4.22 µM
GI50 (DMS 114 small cell lung): 1.66 µM
TGI (DMS 114 small cell lung): 2.16 µM and 3.85 µM
GI50 (DLD-1 colon): 2.14 µM
TGI (DLD-1 colon): 3.31 µM and 4.27 µM
TGI (SK-OV-3 ovarian): 41.5 µM
TGI (HCT-15 colon): 2.94 µM
TGI (SF-539 CNS): 3.64 µM and 3.54 µM
GI50 (EKVX NSCLC): 2.86 µM
TGI (EKVX NSCLC): 2.83 µM and 5.82 µM
GI50 (NCI-H460 lung): 3.45 µM
TGI (NCI-H460 lung): 3.27 µM and 15.1 µM
TGI (M14 melanoma): 3.05 µM and 3.14 µM
GI50 (KM12 colon): 2.13 µM
TGI (KM12 colon): 3.23 µM and 4.59 µM
GI50 (HOP-92 NSCLC): 1.4 µM
TGI (HOP-92 NSCLC): 3.65 µM and 3.19 µM
GI50 (SNB-19 CNS): 3.07 µM
TGI (SNB-19 CNS): 3.6 µM and 10.2 µM
TGI (MALME-3M melanoma): 2.91 µM and 3.08 µM
